{"source": "paper PMC5218480", "about": "(PLoS ONE, 2017)", "test_system": "MV-4-11 cells", "experiment": "Gene expression microarray analysis (Affymetrix PrimeView) and GSEA", "assay_type": "cell-based, human", "set-up": "RFU PODN (11730768_x_at) / Fold change /veh PODN (11730768_x_at) / RFU LINC00158 (11744669_a_at) / Fold change /veh LINC00158 (11744669_a_at) / RFU DUSP10 (11751237_a_at) / Fold change /veh DUSP10 (11751237_a_at) / RFU ID3 (11757404_x_at) / Fold change /veh ID3 (11757404_x_at) / RFU PLEKHG5 (11737974_s_at) / Fold change /veh PLEKHG5 (11737974_s_at) / RFU LRRC4B (11730491_at) / Fold change /veh LRRC4B (11730491_at) / RFU GIMAP4 (11747438_a_at) / Fold change /veh GIMAP4 (11747438_a_at) / RFU KRT8 (11758183_x_at) / Fold change /veh KRT8 (11758183_x_at) / RFU CNN1 (11734310_a_at) / Fold change /veh CNN1 (11734310_a_at) / RFU VPS37D (11726825_at) / Fold change /veh VPS37D (11726825_at) / RFU C10orf10 (11716522_x_at) / Fold change /veh C10orf10 (11716522_x_at) / RFU KIR2DL2 /// KIR2DL4 /// KIR2DL5A /// KIR2DL5B /// KIR2DS1 /// KIR2DS2 /// KIR2DS3 /// KIR2DS4 /// KIR3DL3 /// KIR3DL3 /// KIR3DS1 (11738374_at) / Fold change /veh KIR2DL2 /// KIR2DL4 /// KIR2DL5A /// KIR2DL5B /// KIR2DS1 /// KIR2DS2 /// KIR2DS3 /// KIR2DS4 /// KIR3DL3 /// KIR3DL3 /// KIR3DS1 (11738374_at) / RFU C1QL1 (11718748_at) / Fold change /veh C1QL1 (11718748_at) / RFU TMPRSS4 (11747572_a_at) / Fold change /veh TMPRSS4 (11747572_a_at) / RFU HAMP (11756126_x_at) / Fold change /veh HAMP (11756126_x_at) / RFU RNFT2 (11725882_a_at) / Fold change /veh RNFT2 (11725882_a_at) / RFU NR4A2 (11747474_a_at) / Fold change /veh NR4A2 (11747474_a_at) / RFU ABCC12 (11746883_a_at) / Fold change /veh ABCC12 (11746883_a_at) / RFU TMEM136 (11760407_x_at) / Fold change /veh TMEM136 (11760407_x_at) / RFU CLDN22 /// WWC2 (11732394_at) / Fold change /veh CLDN22 /// WWC2 (11732394_at) / RFU HLA-DPB1 (11760878_x_at) / Fold change /veh HLA-DPB1 (11760878_x_at) / RFU SPINT1 (11716480_a_at) / Fold change /veh SPINT1 (11716480_a_at) / RFU GAP43 (11754022_s_at) / Fold change /veh GAP43 (11754022_s_at) / RFU A4GNT (11735810_at) / Fold change /veh A4GNT (11735810_at) / RFU PRB3 (11715151_x_at) / Fold change /veh PRB3 (11715151_x_at) / RFU TUBB4B (11761932_at) / Fold change /veh TUBB4B (11761932_at) / RFU CAPN14 (11732068_a_at) / Fold change /veh CAPN14 (11732068_a_at) / RFU TMCC2 (11721928_a_at) / Fold change /veh TMCC2 (11721928_a_at) / RFU IRGQ (11745062_a_at) / Fold change /veh IRGQ (11745062_a_at) / RFU FAM174B (11720279_a_at) / Fold change /veh FAM174B (11720279_a_at) / RFU TMPRSS4 (11748680_a_at) / Fold change /veh TMPRSS4 (11748680_a_at) / RFU FAM212B (11763350_a_at) / Fold change /veh FAM212B (11763350_a_at) / RFU PLEKHG5 (11743358_a_at) / Fold change /veh PLEKHG5 (11743358_a_at) / RFU ZSCAN30 (11745921_a_at) / Fold change /veh ZSCAN30 (11745921_a_at) / RFU CMKLR1 (11741424_a_at) / Fold change /veh CMKLR1 (11741424_a_at) / RFU LOC101060620 /// MAPK8IP1 (11723275_at) / Fold change /veh LOC101060620 /// MAPK8IP1 (11723275_at) / RFU SPTSSB (11747773_x_at) / Fold change /veh SPTSSB (11747773_x_at) / RFU PRSS12 (11739890_at) / Fold change /veh PRSS12 (11739890_at) / RFU BIN1 (11741810_x_at) / Fold change /veh BIN1 (11741810_x_at) / RFU WNT11 (11732464_a_at) / Fold change /veh WNT11 (11732464_a_at) / RFU C10orf10 (11716521_a_at) / Fold change /veh C10orf10 (11716521_a_at) / RFU C5orf56 (11738089_at) / Fold change /veh C5orf56 (11738089_at) / RFU CYB561 (11721691_x_at) / Fold change /veh CYB561 (11721691_x_at) / RFU ANKRD19P (11752326_a_at) / Fold change /veh ANKRD19P (11752326_a_at) / RFU OR2T12 /// OR2T33 /// OR2T8 (11738714_s_at) / Fold change /veh OR2T12 /// OR2T33 /// OR2T8 (11738714_s_at) / RFU VCAN (11748164_a_at) / Fold change /veh VCAN (11748164_a_at) / RFU JSRP1 (11732532_at) / Fold change /veh JSRP1 (11732532_at) / RFU KRTAP10-11 (11738290_x_at) / Fold change /veh KRTAP10-11 (11738290_x_at) / RFU MYO3A (11730013_a_at) / Fold change /veh MYO3A (11730013_a_at) / RFU EBF3 (11725865_a_at) / Fold change /veh EBF3 (11725865_a_at) / RFU CAMK2N1 (11719241_x_at) / Fold change /veh CAMK2N1 (11719241_x_at) / RFU C5orf56 (11738088_a_at) / Fold change /veh C5orf56 (11738088_a_at) / RFU OLFML3 (11715873_a_at) / Fold change /veh OLFML3 (11715873_a_at) / RFU LOC100653217 /// NTM (11731650_a_at) / Fold change /veh LOC100653217 /// NTM (11731650_a_at) / RFU MAPK11 (11762145_a_at) / Fold change /veh MAPK11 (11762145_a_at) / RFU FIZ1 (11724087_x_at) / Fold change /veh FIZ1 (11724087_x_at) / RFU OASL (11726364_x_at) / Fold change /veh OASL (11726364_x_at) / RFU SOX15 (11748057_x_at) / Fold change /veh SOX15 (11748057_x_at) / RFU CD79A (11719716_a_at) / Fold change /veh CD79A (11719716_a_at) / RFU HIST1H1D (11736915_at) / Fold change /veh HIST1H1D (11736915_at) / RFU CASKIN2 (11723855_a_at) / Fold change /veh CASKIN2 (11723855_a_at) / RFU LOC730098 (11760151_x_at) / Fold change /veh LOC730098 (11760151_x_at) / RFU OR4N2 (11742367_at) / Fold change /veh OR4N2 (11742367_at) / RFU PRRT2 (11749266_a_at) / Fold change /veh PRRT2 (11749266_a_at) / RFU SNX32 (11753110_a_at) / Fold change /veh SNX32 (11753110_a_at) / RFU CDHR5 (11726645_a_at) / Fold change /veh CDHR5 (11726645_a_at) / RFU RCAN1 (11760418_a_at) / Fold change /veh RCAN1 (11760418_a_at) / RFU FAM167A (11723789_a_at) / Fold change /veh FAM167A (11723789_a_at) / RFU FAM26E (11764081_at) / Fold change /veh FAM26E (11764081_at) / RFU ISYNA1 (11749810_s_at) / Fold change /veh ISYNA1 (11749810_s_at) / RFU ACY1 (11761880_at) / Fold change /veh ACY1 (11761880_at) / RFU 11764098_at / Fold change /veh 11764098_at / RFU SAMD14 (11745864_x_at) / Fold change /veh SAMD14 (11745864_x_at) / RFU NPB (11741838_a_at) / Fold change /veh NPB (11741838_a_at) / RFU TMPRSS6 (11731388_a_at) / Fold change /veh TMPRSS6 (11731388_a_at) / RFU KRTAP10-2 (11738614_at) / Fold change /veh KRTAP10-2 (11738614_at) / RFU ARHGAP8 /// PRR5-ARHGAP8 (11727945_x_at) / Fold change /veh ARHGAP8 /// PRR5-ARHGAP8 (11727945_x_at) / RFU KRTAP5-7 /// NADSYN1 (11734609_at) / Fold change /veh KRTAP5-7 /// NADSYN1 (11734609_at) / RFU RASL12 (11751679_a_at) / Fold change /veh RASL12 (11751679_a_at) / RFU CDKN2B (11736163_a_at) / Fold change /veh CDKN2B (11736163_a_at) / RFU PRF1 (11729649_at) / Fold change /veh PRF1 (11729649_at) / RFU, ZNF638 /// ZNF638-IT1 / Fold change vs veh, ZNF638 /// ZNF638-IT1 / RFU, PANK3 / Fold change vs veh, PANK3 / RFU, SH3YL1 / Fold change vs veh, SH3YL1 / RFU, ZEB2 / Fold change vs veh, ZEB2 / RFU, NRIP1 / Fold change vs veh, NRIP1 / RFU, PTTG1IP / Fold change vs veh, PTTG1IP / RFU, CAPN2 / Fold change vs veh, CAPN2 / RFU, MED14 / Fold change vs veh, MED14 / RFU, SNORA58 / Fold change vs veh, SNORA58 / RFU, C1orf63 / Fold change vs veh, C1orf63 / RFU, LRRFIP1 / Fold change vs veh, LRRFIP1 / RFU, NDUFAF7 / Fold change vs veh, NDUFAF7 / RFU, SLC12A2 / Fold change vs veh, SLC12A2 / RFU, IBTK / Fold change vs veh, IBTK / RFU, ESF1 / Fold change vs veh, ESF1 / Fold change vs veh, TMEM50B / RFU, TAOK1 / Fold change vs veh, TAOK1 / RFU, ACBD3 / Fold change vs veh, ACBD3 / RFU, TMA16 / Fold change vs veh, TMA16 / RFU, RWDD3 / Fold change vs veh, RWDD3 / RFU, BCAT1 / Fold change vs veh, BCAT1 / RFU, EDEM3 / Fold change vs veh, EDEM3 / RFU, TMEM33 / Fold change vs veh, TMEM33 / RFU, WDR75 / Fold change vs veh, WDR75 / RFU, AHCTF1 / Fold change vs veh, AHCTF1 / RFU, TFRC / Fold change vs veh, TFRC / RFU, ZDHHC17 / Fold change vs veh, ZDHHC17 / RFU, NOM1 / Fold change vs veh, NOM1 / RFU, ARL8B / Fold change vs veh, ARL8B / RFU, ZBTB11 / Fold change vs veh, ZBTB11 / RFU, TAMM41 / Fold change vs veh, TAMM41 / RFU, KIAA1704 /// LOC100996395 / Fold change vs veh, KIAA1704 /// LOC100996395 / RFU, ING1 / Fold change vs veh, ING1 / RFU, TRMT61B / Fold change vs veh, TRMT61B / RFU, FUBP3 / Fold change vs veh, FUBP3 / RFU, TP53 / Fold change vs veh, TP53 / RFU, TNKS2 / Fold change vs veh, TNKS2 / RFU, ZFP14 / Fold change vs veh, ZFP14 / RFU, ACTR2 / Fold change vs veh, ACTR2 / RFU, PPP3R1 / Fold change vs veh, PPP3R1 / RFU, PIK3R1 / Fold change vs veh, PIK3R1 / RFU, HNRNPA1 / Fold change vs veh, HNRNPA1 / RFU, RNF170 / Fold change vs veh, RNF170 / RFU, ZNF28 / Fold change vs veh, ZNF28 / RFU, RNGTT / Fold change vs veh, RNGTT / RFU, OGT / Fold change vs veh, OGT / RFU, BRD1 / Fold change vs veh, BRD1 / RFU, MARS / Fold change vs veh, MARS / RFU, ZNF655 / Fold change vs veh, ZNF655 / RFU, FAHD1 / Fold change vs veh, FAHD1 / RFU, BDP1 / Fold change vs veh, BDP1 / RFU, LRRCC1 / Fold change vs veh, LRRCC1 / RFU, ARID1A / Fold change vs veh, ARID1A / RFU, ZNF146 / Fold change vs veh, ZNF146 / RFU, ZNF330 / Fold change vs veh, ZNF330 / RFU, GPN3 / Fold change vs veh, GPN3 / RFU, C9orf123 / Fold change vs veh, C9orf123 / RFU, N4BP2L2 / Fold change vs veh, N4BP2L2 / RFU, ARFIP1 / Fold change vs veh, ARFIP1 / RFU, FAM179B / Fold change vs veh, FAM179B / RFU, BCL10 / Fold change vs veh, BCL10 / RFU, UHRF1BP1L / Fold change vs veh, UHRF1BP1L / RFU, BET1 / Fold change vs veh, BET1 / RFU, CNOT2 / Fold change vs veh, CNOT2 / RFU, ZNF268 / Fold change vs veh, ZNF268 / Fold change vs veh, ZNF507 / RFU, DGCR2 / Fold change vs veh, DGCR2 / RFU, WDSUB1 / Fold change vs veh, WDSUB1 / Fold change vs veh, HSP90B1 /// MIR3652 / RFU, ADSS / Fold change vs veh, ADSS / RFU, GK / Fold change vs veh, GK / RFU, ZNF148 / Fold change vs veh, ZNF148 / RFU, TAF9 / Fold change vs veh, TAF9 / RFU, SLC1A5 / Fold change vs veh, SLC1A5 / RFU, SLMO2 / Fold change vs veh, SLMO2 / RFU, ABCC4 / Fold change vs veh, ABCC4 / RFU, LOC101060439 /// RAP1B / Fold change vs veh, LOC101060439 /// RAP1B / RFU, RFX7 / Fold change vs veh, RFX7 / RFU, GTPBP10 / Fold change vs veh, GTPBP10 / RFU, CNEP1R1 / Fold change vs veh, CNEP1R1 / RFU, BIVM-ERCC5 /// ERCC5 / Fold change vs veh, BIVM-ERCC5 /// ERCC5 / RFU, ILF3 / Fold change vs veh, ILF3 / RFU 11762660_at / Fold change /veh 11762660_at / RFU VCAN (11757783_s_at) / Fold change /veh VCAN (11757783_s_at) / RFU DDX43 (11728927_at) / Fold change /veh DDX43 (11728927_at) / RFU KRT8 (11758188_x_at) / Fold change /veh KRT8 (11758188_x_at) / RFU NKD1 (11759106_at) / Fold change /veh NKD1 (11759106_at) / RFU SRD5A1 (11742802_a_at) / Fold change /veh SRD5A1 (11742802_a_at) / RFU TPSAB1 /// TPSB2 (11721975_s_at) / Fold change /veh TPSAB1 /// TPSB2 (11721975_s_at) / RFU GSTM3 (11746129_a_at) / Fold change /veh GSTM3 (11746129_a_at) / RFU IL23R (11737362_x_at) / Fold change /veh IL23R (11737362_x_at) / RFU TMEM51 (11727254_a_at) / Fold change /veh TMEM51 (11727254_a_at) / RFU PIWIL2 (11732686_x_at) / Fold change /veh PIWIL2 (11732686_x_at) / RFU ORM1 (11744905_x_at) / Fold change /veh ORM1 (11744905_x_at) / RFU CCDC152 (11743942_at) / Fold change /veh CCDC152 (11743942_at) / RFU ECM1 (11717891_a_at) / Fold change /veh ECM1 (11717891_a_at) / RFU IL23R (11748794_a_at) / Fold change /veh IL23R (11748794_a_at) / RFU TNFAIP8L3 (11732012_x_at) / Fold change /veh TNFAIP8L3 (11732012_x_at) / RFU MBOAT4 (11741988_at) / Fold change /veh MBOAT4 (11741988_at) / RFU 11764193_at / Fold change /veh 11764193_at / RFU TMEM53 (11763286_at) / Fold change /veh TMEM53 (11763286_at) / RFU MAGEB2 (11727129_at) / Fold change /veh MAGEB2 (11727129_at) / RFU TMEM200A (11744735_a_at) / Fold change /veh TMEM200A (11744735_a_at) / RFU CCDC152 (11751479_a_at) / Fold change /veh CCDC152 (11751479_a_at) / RFU FAM211A (11726209_a_at) / Fold change /veh FAM211A (11726209_a_at) / RFU RGS16 (11746705_a_at) / Fold change /veh RGS16 (11746705_a_at) / RFU VCAN (11755009_s_at) / Fold change /veh VCAN (11755009_s_at) / RFU RHOB (11743442_s_at) / Fold change /veh RHOB (11743442_s_at) / RFU RGS16 (11720943_a_at) / Fold change /veh RGS16 (11720943_a_at) / RFU RGS16 (11720944_at) / Fold change /veh RGS16 (11720944_at) / RFU, VPS4B / Fold change vs veh, VPS4B / RFU, CREB1 / Fold change vs veh, CREB1 / RFU, DNAJC13 / Fold change vs veh, DNAJC13 / RFU, GNAQ / Fold change vs veh, GNAQ / RFU, CDK5R1 / Fold change vs veh, CDK5R1 / RFU, ZRANB3 / Fold change vs veh, ZRANB3 / RFU, CUL4A / Fold change vs veh, CUL4A / RFU, CCNY / Fold change vs veh, CCNY / RFU, UFL1 / Fold change vs veh, UFL1 / RFU, COG3 / Fold change vs veh, COG3 / RFU, DIAPH2 / Fold change vs veh, DIAPH2 / RFU, SKA2 / Fold change vs veh, SKA2 / RFU, AFF3 / Fold change vs veh, AFF3 / RFU, LMF1 / Fold change vs veh, LMF1 / RFU, IPO11 / Fold change vs veh, IPO11 / RFU, DFFB / Fold change vs veh, DFFB / RFU, FOXP1 / Fold change vs veh, FOXP1 / RFU, CARD8 / Fold change vs veh, CARD8 / RFU, STRN3 / Fold change vs veh, STRN3 / RFU, ADK / Fold change vs veh, ADK / RFU, RASSF2 / Fold change vs veh, RASSF2 / RFU, WIPF1 / Fold change vs veh, WIPF1 / RFU, LARP1B / Fold change vs veh, LARP1B / RFU, RASA1 / Fold change vs veh, RASA1 / RFU, RB1 / Fold change vs veh, RB1 / RFU, PPFIA1 / Fold change vs veh, PPFIA1 / RFU, MAT2A / Fold change vs veh, MAT2A / RFU, CCT5 / Fold change vs veh, CCT5 / RFU, WDR92 / Fold change vs veh, WDR92 / RFU, CUX1 / Fold change vs veh, CUX1 / RFU, TTC7A / Fold change vs veh, TTC7A / RFU, TMEM135 / Fold change vs veh, TMEM135 / RFU, DEPTOR / Fold change vs veh, DEPTOR / RFU, CPM / Fold change vs veh, CPM / RFU, DNAJB6 / Fold change vs veh, DNAJB6 / RFU, CACNA2D3 / Fold change vs veh, CACNA2D3 / RFU, DTX4 / Fold change vs veh, DTX4 / RFU, TFCP2 / Fold change vs veh, TFCP2 / RFU, GMCL1 /// GMCL1P1 / Fold change vs veh, GMCL1 /// GMCL1P1 / RFU, AEBP2 / Fold change vs veh, AEBP2 / RFU, SNHG1 /// SNORD22 /// SNORD25 /// SNORD26 /// SNORD27 /// SNORD28 /// SNORD29 /// SNORD31 / Fold change vs veh, SNHG1 /// SNORD22 /// SNORD25 /// SNORD26 /// SNORD27 /// SNORD28 /// SNORD29 /// SNORD31 / Fold change (Aza/veh), C12orf56 (ProbeSet 11735607_a_at) / Fold change (ACY-1035/veh), C12orf56 (ProbeSet 11735607_a_at) / Fold change (Aza/veh), FGFR1OP (ProbeSet 11751329_s_at) / Fold change (ACY-1035/veh), FGFR1OP (ProbeSet 11751329_s_at) / Fold change (Aza/veh), VPS36 (ProbeSet 11739960_a_at) / Fold change (ACY-1035/veh), VPS36 (ProbeSet 11739960_a_at) / RFU SYPL1 (11715823_x_at) / Fold change /veh SYPL1 (11715823_x_at) / RFU IGFBP7 (11715501_s_at) / Fold change /veh IGFBP7 (11715501_s_at) / RFU REEP3 (11722064_at) / Fold change /veh REEP3 (11722064_at) / RFU IGLL1 (11728026_x_at) / Fold change /veh IGLL1 (11728026_x_at): dose or concentration left out as unconfirmed", "settings": "MV-4-11 cells, 48 hours"}
{"smiles": "Nc1ccc(-c2cccs2)cc1NC(=O)c1ccc2c(c1)cc(C1CC1)n2CCN1CCOCC1", "note": "[ACY-1035]", "values": [{"measurement": "RFU C10orf10 (11716521_a_at)", "result": 34.07, "unit": "RFU"}]}
